Test results from PubChem BioAssay AID222 (DTP/NCI, 2004).
Where “and” joins values, the source holds several entries; their conditions need not be identical. Equal values may be shown once. Toxic doses and inconclusive results are not listed. How the source made its calls: active means survival T/C of 150% or more; inactive means T/C below 125% in these data. Starred links: 1 amine or outer side, 2 acyl side, 3 side chain; linkers in the order of their positions; H or OH if unused. Positions of bridges follow the written chain, without caps; N, C: chain ends. Non-standard residues stand in square brackets, D forms with d. Residues, ends and D or L forms follow the SMILES beside them. Chains are numbered I, II in the order given. Actinocin(9to1) = Cc1c2oc3c(C)ccc(C(=O)[*:1])c3nc-2c(C(=O)[*:2])c(N)c1=O; aThr = C[C@H](O)[C@H](N)C(=O)O; NMeV = CN[C@H](C(=O)O)C(C)C; Sar = CNCC(=O)O

Test system: C57BL/6 mice, intracerebral ependymoblastoma, median survival T/C
Experiment: NCI In Vivo Anticancer Drug Screen. Data for tumor model Ependymoblastoma (intracerebral) in C57BL/6 mice
Settings: endpoint: median survival time, higher = longer survival
Procedure: The antitumor activity of compounds was measured in mice bearing transplantable tumors. Survival or tumor size were measured and the results are expressed as the measurement made in the treated group (T) divided by the measurement made in the vehicle treated control group (C). The tumor model used in this assay is Ependymoblastoma (intracerebral) in C57BL/6 mice

[1] = dose: 100.0 mg/kg/injection, schedule: Q01DX005 (ip), vehicle: saline
[2] = dose: 64.0 mg/kg/injection, schedule: Q01DX005 (ip), vehicle: saline with Tween-80
[3] = dose: 4.0 mg/kg/injection, schedule: Q01DX005 (ip), vehicle: Klucel (hydroxypropylcellulose) (HPC)
[4] = dose: 8.0 mg/kg/injection, schedule: Q01DX005 (ip), vehicle: Klucel (hydroxypropylcellulose) (HPC)

Measured: T/C

CCOC(=O)CC(SP(=S)(OC)OC)C(=O)OCC (stereo not drawn)
inactive: dose: 24.0 mg/kg/injection, schedule: Q01DX005 (ip), vehicle: saline with Tween-80 101 % of control and 104 % of control | dose: 45.0 mg/kg/injection, schedule: Q01DX005 (ip), vehicle: saline with Tween-80 101 % of control and 108 % of control | dose: 50.0 mg/kg/injection, schedule: Q01DX005 (ip), vehicle: suspension in saline 102 % of control | dose: 90.0 mg/kg/injection, schedule: Q01DX005 (ip), vehicle: saline with Tween-80 95 % of control and 116 % of control | dose: 100.0 mg/kg/injection, schedule: Q01DX005 (ip), vehicle: suspension in saline 103 % of control | dose: 180.0 mg/kg/injection, schedule: Q01DX005 (ip), vehicle: saline with Tween-80 104 % of control | dose: 200.0 mg/kg/injection, schedule: Q01DX005 (ip), vehicle: suspension in saline 99 % of control

CNc1nc(N(C)C)nc(N(C)C)n1
inactive: dose: 3.12 mg/kg/injection, schedule: Q01DX005 (ip), vehicle: saline 103 % of control | dose: 6.25 mg/kg/injection, schedule: Q01DX005 (ip), vehicle: saline 96 % of control | dose: 12.5 mg/kg/injection, schedule: Q01DX005 (ip), vehicle: saline 97 % of control | dose: 25.0 mg/kg/injection, schedule: Q01DX005 (ip), vehicle: saline 108 % of control | dose: 50.0 mg/kg/injection, schedule: Q01DX005 (ip), vehicle: saline 100 % of control | [1] 113 % of control

Nc1nncs1
inactive: dose: 7.5 mg/kg/injection, schedule: Q01DX009 (ip), vehicle: Klucel (hydroxypropylcellulose) (HPC) 112 % of control | dose: 15.0 mg/kg/injection, schedule: Q01DX009 (ip), vehicle: Klucel (hydroxypropylcellulose) (HPC) 117 % of control | [2] 102 % of control

CN(C)CC(=O)c1ccc(O)c(O)c1
inactive: [1] 101 % of control | dose: 200.0 mg/kg/injection, schedule: Q01DX005 (ip), vehicle: saline 99 % of control | dose: 400.0 mg/kg/injection, schedule: Q01DX005 (ip), vehicle: saline 108 % of control

COc1cc(NS(C)(=O)=O)ccc1Nc1c2ccccc2nc2ccccc12
inactive: dose: 1.0 mg/kg/injection, schedule: Q01DX005 (ip), vehicle: Klucel (hydroxypropylcellulose) (HPC) 93 % of control and 108 % of control | dose: 1.0 mg/kg/injection, schedule: Q01DX005 (ip), vehicle: saline + alcohol 93 % of control and 108 % of control and 116 % of control | dose: 1.0 mg/kg/injection, schedule: Q01DX005 (ip), vehicle: water 89 % of control and 110 % of control | dose: 2.0 mg/kg/injection, schedule: Q01DX005 (ip), vehicle: Klucel (hydroxypropylcellulose) (HPC) 98 % of control and 104 % of control | dose: 2.0 mg/kg/injection, schedule: Q01DX005 (ip), vehicle: saline + alcohol 94 % of control and 109 % of control and 112 % of control | dose: 2.0 mg/kg/injection, schedule: Q01DX005 (ip), vehicle: water 105 % of control and 108 % of control | [3] 112 % of control | dose: 4.0 mg/kg/injection, schedule: Q01DX005 (ip), vehicle: saline + alcohol 90 % of control and 98 % of control | dose: 4.0 mg/kg/injection, schedule: Q01DX005 (ip), vehicle: water 103 % of control and 107 % of control | dose: 4.0 mg/kg/injection, schedule: Q#A X002 (ip), vehicle: Klucel (hydroxypropylcellulose) (HPC) 89 % of control and 105 % of control | dose: 8.0 mg/kg/injection, schedule: Q01DX001 (ip), vehicle: Klucel (hydroxypropylcellulose) (HPC) 90 % of control and 96 % of control and 106 % of control | [4] 116 % of control | dose: 8.0 mg/kg/injection, schedule: Q#A X002 (ip), vehicle: Klucel (hydroxypropylcellulose) (HPC) 91 % of control and 92 % of control | dose: 16.0 mg/kg/injection, schedule: Q01DX001 (ip), vehicle: Klucel (hydroxypropylcellulose) (HPC) 104 % of control (2×) and 107 % of control | dose: 16.0 mg/kg/injection, schedule: Q01DX001 (oral), vehicle: Klucel (hydroxypropylcellulose) (HPC) 99 % of control and 113 % of control | dose: 16.0 mg/kg/injection, schedule: Q#A X002 (ip), vehicle: Klucel (hydroxypropylcellulose) (HPC) 90 % of control | dose: 32.0 mg/kg/injection, schedule: Q01DX001 (ip), vehicle: Klucel (hydroxypropylcellulose) (HPC) 89 % of control and 101 % of control and 107 % of control | dose: 32.0 mg/kg/injection, schedule: Q01DX001 (oral), vehicle: Klucel (hydroxypropylcellulose) (HPC) 108 % of control | dose: 32.0 mg/kg/injection, schedule: Q#A X002 (ip), vehicle: Klucel (hydroxypropylcellulose) (HPC) 89 % of control and 93 % of control | dose: 64.0 mg/kg/injection, schedule: Q01DX001 (ip), vehicle: Klucel (hydroxypropylcellulose) (HPC) 91 % of control | dose: 64.0 mg/kg/injection, schedule: Q01DX001 (oral), vehicle: Klucel (hydroxypropylcellulose) (HPC) 94 % of control and 97 % of control | dose: 64.0 mg/kg/injection, schedule: Q#A X002 (ip), vehicle: Klucel (hydroxypropylcellulose) (HPC) 89 % of control and 91 % of control | dose: 128.0 mg/kg/injection, schedule: Q01DX001 (oral), vehicle: Klucel (hydroxypropylcellulose) (HPC) 90 % of control and 102 % of control | dose: 256.0 mg/kg/injection, schedule: Q01DX001 (oral), vehicle: Klucel (hydroxypropylcellulose) (HPC) 91 % of control

Cc1c2oc3c(C)ccc(C(=O)N[C@@H]4C(=O)N[C@H](C(C)C)C(=O)N5CCC[C@H]5C(=O)N(C)CC(=O)N(C)[C@@H](C(C)C)C(=O)O[C@H]4C)c3nc-2c(C(=O)N[C@@H]2C(=O)N[C@H](C(C)C)C(=O)N3CCC[C@H]3C(=O)N(C)CC(=O)N(C)[C@@H](C(C)C)C(=O)O[C@H]2C)c(N)c1=O (I: [aThr][dV]P[Sar][NMeV] / II: [aThr][dV]P[Sar][NMeV]; ester I:1-I:C, II:1-II:C; linker I:N-II:N via Actinocin(9to1))
inactive: dose: 12.5 micrograms/kg/injection, schedule: Q01DX005 (ip), vehicle: saline 116 % of control | dose: 25.0 micrograms/kg/injection, schedule: Q01DX005 (ip), vehicle: saline 97 % of control | dose: 50.0 micrograms/kg/injection, schedule: Q01DX005 (ip), vehicle: saline 101 % of control

O=S(=O)(O)O
inactive: dose: 16.0 mg/kg/injection, schedule: Q01DX005 (ip), vehicle: saline with Tween-80 90 % of control | dose: 32.0 mg/kg/injection, schedule: Q01DX005 (ip), vehicle: saline with Tween-80 94 % of control | [2] 112 % of control

C[CH2][Ge]1([CH2]C)[CH2]CC2(CCN(CCCN(C)C)C2)C[CH2]1
inactive: dose: 4.0 mg/kg/injection, schedule: Q01DX005 (ip), vehicle: saline 104 % of control | dose: 8.0 mg/kg/injection, schedule: Q01DX005 (ip), vehicle: saline 98 % of control and 101 % of control and 108 % of control

N=C(N)SCc1c2ccccc2c(CSC(=N)N)c2ccccc12
inactive: dose: 2.5 mg/kg/injection, schedule: Q01DX005 (ip), vehicle: Klucel (hydroxypropylcellulose) (HPC) 99 % of control | dose: 5.0 mg/kg/injection, schedule: Q01DX005 (ip), vehicle: Klucel (hydroxypropylcellulose) (HPC) 100 % of control | dose: 10.0 mg/kg/injection, schedule: Q01DX005 (ip), vehicle: Klucel (hydroxypropylcellulose) (HPC) 90 % of control | dose: 20.0 mg/kg/injection, schedule: Q01DX005 (ip), vehicle: Klucel (hydroxypropylcellulose) (HPC) 102 % of control

O=C1C(=O)c2ccccc2C(O)=C1CC=C(Cl)Cl
inactive: [3] 102 % of control and 109 % of control | [4] 100 % of control and 122 % of control | dose: 16.0 mg/kg/injection, schedule: Q01DX005 (ip), vehicle: Klucel (hydroxypropylcellulose) (HPC) 104 % of control and 113 % of control | dose: 32.0 mg/kg/injection, schedule: Q01DX005 (ip), vehicle: Klucel (hydroxypropylcellulose) (HPC) 107 % of control and 108 % of control | dose: 64.0 mg/kg/injection, schedule: Q01DX005 (ip), vehicle: Klucel (hydroxypropylcellulose) (HPC) 101 % of control and 105 % of control

NC(=O)c1ncn(C2OC(CO)C(O)C2O)n1 (stereo not drawn)
inactive: dose: 20.0 mg/kg/injection, schedule: Q01DX005 (ip), vehicle: saline 108 % of control | dose: 40.0 mg/kg/injection, schedule: Q01DX005 (ip), vehicle: saline 105 % of control | dose: 80.0 mg/kg/injection, schedule: Q01DX005 (ip), vehicle: saline 108 % of control
